Experimental data from BindingDB's records for PubMed 39026645 (Tianjin University).

Target: T1, Polyphenol oxidase 4 (Agaricus bisporus, UniProt C7FF05)
T1 sequence (C7FF05 whole entry): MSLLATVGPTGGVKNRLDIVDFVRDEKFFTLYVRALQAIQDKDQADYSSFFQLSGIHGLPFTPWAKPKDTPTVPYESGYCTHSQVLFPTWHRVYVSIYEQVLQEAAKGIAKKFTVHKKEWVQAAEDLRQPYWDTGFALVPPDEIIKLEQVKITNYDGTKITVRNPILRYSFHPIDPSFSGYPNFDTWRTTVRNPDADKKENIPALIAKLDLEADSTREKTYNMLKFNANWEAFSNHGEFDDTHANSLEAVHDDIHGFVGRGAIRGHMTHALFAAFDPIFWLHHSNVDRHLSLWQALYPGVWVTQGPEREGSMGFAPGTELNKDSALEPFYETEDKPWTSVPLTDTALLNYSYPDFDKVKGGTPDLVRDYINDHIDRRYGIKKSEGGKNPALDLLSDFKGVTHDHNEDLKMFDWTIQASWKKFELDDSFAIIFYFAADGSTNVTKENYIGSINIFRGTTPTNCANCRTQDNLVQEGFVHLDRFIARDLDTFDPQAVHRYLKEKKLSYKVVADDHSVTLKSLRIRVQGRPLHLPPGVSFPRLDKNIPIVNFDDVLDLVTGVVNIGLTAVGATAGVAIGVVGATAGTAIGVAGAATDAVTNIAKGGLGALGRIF
Test: Inhibition of mushroom tyrosinase

IC50 [nM]	SMILES
2.6	COc1c(O[C@@H]2O[C@H](CO)[C@@H](O)[C@H](O)[C@H]2O)cc2occ(-c3ccc(O)cc3)c(=O)c2c1O [CHEBI:9428]
1.4	COc1c(O)cc2occ(-c3ccc(O)cc3)c(=O)c2c1O [Tectorigenin]
